# Experimental data from US6087355A, “Cephalosporin antibiotics” (Microcide Pharmaceuticals, Inc., priority 1996, dated 2000).
# Where a name gives a salt, the structure may show the parent alone.
# Key:
# E. faecalis VanB(Van^R) = experiment: In vitro MIC, agar dilution; type: cell-based; details: Enterococcus faecalis, read-out: minimum inhibitory concentration (MIC)
# Summary of the method: (§1)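 Spots of about 10^4 cfu of log-phase culture were applied, and plates were incubated 16-20 h at 35-36 °C. MIC was the lowest concentration inhibiting growth.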
# P. aeruginosa ATCC 27853 = experiment: In vitro MIC, agar dilution; type: cell-based; details: Pseudomonas aeruginosa, ATCC27853, read-out: minimum inhibitory concentration (MIC)
# Summary of the method: as §1
# [1] = system: S. aureus PC1(Meth^S)(lac^+); experiment: In vitro MIC, agar dilution; type: cell-based; details: Staphylococcus aureus, read-out: minimum inhibitory concentration (MIC)
# Summary of the method: as §1
# [2] = system: S. aureus 76(Meth^R)(lac^+); experiment: In vitro MIC, agar dilution; type: cell-based; details: Staphylococcus aureus, read-out: minimum inhibitory concentration (MIC)
# Summary of the method: as §1
# E. faecium ATCC 35667 = experiment: In vitro MIC, agar dilution; type: cell-based; details: Enterococcus faecium, ATCC35667, read-out: minimum inhibitory concentration (MIC)
# Summary of the method: as §1
# S. aureus ATCC 29213 = experiment: In vitro MIC, agar dilution; type: cell-based; details: Staphylococcus aureus, ATCC29213, read-out: minimum inhibitory concentration (MIC)
# Summary of the method: as §1
# E. faecium A491(Amp^R) = experiment: In vitro MIC, agar dilution; type: cell-based; details: Enterococcus faecium, read-out: minimum inhibitory concentration (MIC)
# Summary of the method: as §1
# [3] = system: S. aureus ATCC 33593(Meth^R); experiment: In vitro MIC, agar dilution; type: cell-based; details: Staphylococcus aureus, ATCC33593, read-out: minimum inhibitory concentration (MIC)
# Summary of the method: as §1
# [4] = system: S. aureus Spain #356(Meth^R); experiment: In vitro MIC, agar dilution; type: cell-based; details: Staphylococcus aureus, read-out: minimum inhibitory concentration (MIC)
# Summary of the method: as §1
# E. faecium VanA(Van^R) = experiment: In vitro MIC, agar dilution; type: cell-based; details: Enterococcus faecium, read-out: minimum inhibitory concentration (MIC)
# Summary of the method: as §1
# E. faecalis ATCC 29212 = experiment: In vitro MIC, agar dilution; type: cell-based; details: Enterococcus faecalis, ATCC29212, read-out: minimum inhibitory concentration (MIC)
# Summary of the method: as §1
# [5] = system: S. haemolyticus 05(Meth^R); experiment: In vitro MIC, agar dilution; type: cell-based; details: Staphylococcus haemolyticus, read-out: minimum inhibitory concentration (MIC)
# Summary of the method: as §1
# E. coli ATCC 25992 = experiment: In vitro MIC, agar dilution; type: cell-based; details: Escherichia coli, ATCC25992, read-out: minimum inhibitory concentration (MIC)
# Summary of the method: as §1
# [6] = system: S. aureus ATCC 13709(Meth^S); experiment: In vitro MIC, agar dilution; type: cell-based; details: Staphylococcus aureus, ATCC13709, S. aureus ATCC 13709(Meth^S); read-out: minimum inhibitory concentration (MIC)
# Summary of the method: as §1
# [7] = system: S. aureus strain ATCC 13709 (methicillin-susceptible); experiment: Murine model for lethal bacteremic peritonitis; type: in vivo, female Swiss-Webster mice; details: Staphylococcus aureus, ATCC13709, SC, 72 h; for responders at 1.25 mg/kg: read-out: Survivors (converted); for ED50: two equal doses, IP challenge, read-out: ED50
# Description: Groups of 5 female Swiss-Webster mice (Simonsen, Gilroy, Calif.) each are challenged by the intraperitoneal (IP) route with tenfold increments of a bacterial inoculum. This permits calculation of the mean lethal dose (LD50) and the LD100. For preliminary evaluation of a new antibiotic, mice are challenged IP with an LD100 titer of bacteria. In two equal doses administered at the time of bacterial challenge and 2 hours later, groups of 10 mice each are treated subcutaneously with two-fold increments of the test drug and an antibiotic of known efficacy in mice and humans (i.e., positive control). Mice are observed for 72 h. Those alive at 72 h are considered long term survivors. The total drug dose in mg/kg that protects 50% of mice in a group from death is termed the mean protective dose (PD50). PD50 s are similarly determined for several pathogens. The quantitative endpoints for the new drug are then compared with those obtained with reference antibiotics.
# Six ten-fold dilutions of inoculum suspended in 0.5 mL of sterilized 7% hog gastric mucin (Sigma) are injected IP in groups of 5 mice each. A control group of 5 mice receive mucin alone. Mice are observed for 72 h. Those alive at 72 h are considered long term survivors. The mean lethal dose (LD50) and 100% lethal dose (LD100) are determined by the probit test.
# For antibiotic efficacy studies, mice are challenged IP with bacterial titers that will afford an LD100 for the test strain. In two equal doses administered at the time of bacterial challenge and 2 hours later, groups of 10 mice each are treated by the subcutaneous route (SC) with twofold increments of the test antibiotic; another group is treated similarly with a reference antibiotic of known efficacy in animals and man. Drug doses can range from 0.01 to 512 mg/kg. If the drug is poorly soluble, Tween 20 or propylene glycol will be employed to solubilize the drug. Animals are observed for 72 h. The 50% protective dose (PD50) is calculated in mg/kg by the probit method. The PD50 is the same as the 50% effective dose (ED50) and the 50% curative dose (CD50). Samples of blood from the hearts of all animals that die and from half the mice that survive are cultured on brain-heart infusion agar. Animals that received a protective dosage of the test drug will be alive at 72 h, although they may appear moderately ill to very ill during the observation period. […] Most of these mice will die within 6 to 48 h. Those alive at 72 h will be considered long term survivors.
# (Compound numbers correspond to those in MIC tables; data reported for challenge with methicillin-susceptible S. aureus strain ATCC 13709.)
# [8] = system: S. aureus Col(Meth^R)(lac^-); experiment: In vitro MIC, agar dilution; type: cell-based; details: Staphylococcus aureus, read-out: minimum inhibitory concentration (MIC)
# Summary of the method: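 Two-fold dilutions (128 to ≤0.25 μg/mL, in duplicate) were poured into Mueller-Hinton agar. Log-phase broth cultures were spot-inoculated at about 10^4 cfu per spot and incubated 35-36°C for 16-20 hours; the MIC was the lowest concentration inhibiting growth. Col is a high-level PBP2a producer; Col 8A is its isogenic PBP2a-lacking partner.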
SMILES,MIC (E. faecalis VanB(Van^R)) [µg/mL],MIC (P. aeruginosa ATCC 27853) [µg/mL],MIC [1] [µg/mL],MIC [2] [µg/mL],MIC (E. faecium ATCC 35667) [µg/mL],MIC (S. aureus ATCC 29213) [µg/mL],MIC (E. faecium A491(Amp^R)) [µg/mL],MIC [3] [µg/mL],MIC [4] [µg/mL],MIC (E. faecium VanA(Van^R)) [µg/mL],MIC (E. faecalis ATCC 29212) [µg/mL],MIC [5] [µg/mL],MIC (E. coli ATCC 25992) [µg/mL],MIC [6] [µg/mL],responders at 0.3125 mg/kg ([7]; read-out: Survivors) [%],responders at 0.625 mg/kg ([7]; read-out: Survivors) [%],responders at 1.25 mg/kg [7] [%],ED50 [7] [mg/kg],MIC [8] [µg/mL],responders at 2.5 mg/kg ([7]; read-out: Survivors) [%],further results
"NCCSCc1cnccc1SC1=C(C(=O)O)N2C(=O)[C@@H](NC(=O)/C(=N\O)c3csc(N)n3)[C@H]2SC1 [Cmpd 10, (7R)-7-[(Z)-2-(aminothiazol-4-yl)-2-(hydroxyimino)acetamido]-3-(3-aminoethylthiomethylpyrid-4-ylthio)-3-cephem-4-carboxylate, trifluoroacetic acid salt]",1,> 32,0.5,2,2,0.5,> 32,2,2,4,0.5,4,4,0.5,20,80,100,1.29,2,–,"responders at 0.078 mg/kg ([7]; Dose 0.078 mg/kg, read-out: Survivors): 20%; responders at 0.156 mg/kg ([7]; read-out: Survivors): 20%"
"N=C(N)NCCSCc1cnccc1SC1=C(C(=O)O)N2C(=O)[C@@H](NC(=O)/C(=N\O)c3csc(N)n3)[C@H]2SC1 [Cmpd 14, (7R)-7-[(Z)-2-(aminothiazol-4-yl)-2-(hydroxyimino)acetamido]-3-(3-guanidinoethylthiomethylpyrid-4-ylthio)-3-cephem-4-carboxylate, trifluoroacetic acid salt]",0.25,> 32,0.5,4,1,0.5,> 32,2,4,2,0.25,4,4,0.25,10,30,30,1.13,4,90,responders at 5 mg/kg ([7]; read-out: Survivors): 100%
"CNCCSCc1cnccc1SC1=C(C(=O)O)N2C(=O)[C@@H](NC(=O)/C(=N\O)c3csc(N)n3)[C@H]2SC1 [Cmpd 15, (7R)-7-[(Z)-2-(aminothiazol-4-yl)-2-(hydroxyimino)acetamido]-3-(3-methylaminoethylthiomethylpyrid-4-ylthio)-3-cephem-4-carboxylate, trifluoroacetic acid salt]",0.5,> 32,1,4,2,1,> 32,4,4,4,2,8,8,0.5,20,0,20,4.63,4,50,responders at 5 mg/kg ([7]; read-out: Survivors): 50%
"NCCSCc1cnccc1SC1=C(C(=O)O)N2C(=O)[C@@H](NC(=O)/C(=N\O)c3nc(N)sc3Cl)[C@H]2SC1 [Cmpd 16, (7R)-7-[(Z)-2-(2-amino-5-chlorothiazol-4-yl)-2-(hydroxyimino)acetamido]-3-(3-aminoethylthiomethylpyrid-4-ylthio)-3-cephem-4-carboxylate, trifluoroacetic acid salt]",0.13,> 32,0.25,1,0.5,0.25,8,1,1,0.25,≤ 0.06,2,8,0.13,10,30,55.6,1,0.5,80,responders at 0.156 mg/kg ([7]; read-out: Survivors): 20%
"NCCSCc1cnccc1SC1=C(C(=O)O)N2C(=O)[C@@H](NC(=O)/C(=N\O)c3ccccc3)[C@H]2SC1.O=C(O)C(F)(F)F [Cmpd 26, (7R)-7-[(Z)-2-phenyl-2-(hydroxyimino)acetamido]-3-(3-aminoethylthiomethylpyrid-4-ylthio)-3-cephem-4-carboxylate, trifluoroacetic acid salt]",0.13,> 32,0.13,1,0.25,0.13,8,1,1,0.5,≤ 0.06,2,> 32,≤ 0.06,10,50,50,1.06,0.5,70,responders at 5 mg/kg ([7]; read-out: Survivors): 90%
"NCC(=O)NCCSCc1cnccc1SC1=C(C(=O)O)N2C(=O)[C@@H](NC(=O)/C(=N\O)c3nc(N)sc3Cl)[C@H]2SC1 [Cmpd 29, (7R)-7-[(Z)-2-(2-amino-5-chlorothiazol-4-yl)-2-(hydroxyimino)acetamido]-3-[3-(glycyl)aminoethylthiomethylpyrid-4-ylthio]-3-cephem-4-carboxylate, trifluoroacetic acid salt]",≤ 0.06,> 32,0.25,1,0.25,0.25,4,2,2,0.5,≤ 0.06,2,8,0.13,20,50,90,1.26,1,90,responders at 5 mg/kg ([7]; read-out: Survivors): 70%
